Consider five compounds from US5510368A, “N-benzyl-3-indoleacetic acids as antiinflammatory drugs” (priority 1995, dated 1996).

Counter-ions that a name gives are not always drawn.

Test [1] addresses T1, cyclooxygenase-2 (Homo sapiens, UniProt P35354).
T1 sequence (P35354 18-604): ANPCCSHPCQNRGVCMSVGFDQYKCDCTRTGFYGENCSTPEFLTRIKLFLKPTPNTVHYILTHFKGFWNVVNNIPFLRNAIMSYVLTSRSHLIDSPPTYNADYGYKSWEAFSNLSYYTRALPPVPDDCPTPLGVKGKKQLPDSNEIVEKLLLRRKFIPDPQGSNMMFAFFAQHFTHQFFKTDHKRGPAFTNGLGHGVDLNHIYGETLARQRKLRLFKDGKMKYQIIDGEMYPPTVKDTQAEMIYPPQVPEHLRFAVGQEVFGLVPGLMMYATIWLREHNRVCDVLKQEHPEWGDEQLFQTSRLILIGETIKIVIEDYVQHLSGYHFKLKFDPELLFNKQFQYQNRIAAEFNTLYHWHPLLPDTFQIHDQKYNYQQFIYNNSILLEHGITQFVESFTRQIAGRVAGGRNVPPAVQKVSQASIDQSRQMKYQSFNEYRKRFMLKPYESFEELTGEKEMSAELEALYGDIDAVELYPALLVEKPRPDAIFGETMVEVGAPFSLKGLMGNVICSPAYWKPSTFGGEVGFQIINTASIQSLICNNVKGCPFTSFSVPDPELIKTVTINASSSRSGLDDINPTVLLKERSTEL
Kind of test: cell-based. Conditions: human osteosarcoma 143 cells; PGE2 synthesis; 10 μM arachidonic acid; read-out: COX-2 (IC50). The protocol:
Compounds were tested as inhibitors of cyclooxygenase activity in whole cell cyclooxygenase assays. Both of these assays measured prostaglandin E2 synthesis in response to arachidonic acid, using a radioimmunoassay. Cells used for these assays were human osteosarcoma 143 cells (which specifically express cyclooxygenase-2) and human U-937 cells (which specifically express cyclooxygenase-1 ). In these assays, 100% activity is defined as the difference between prostaglandin E2 synthesis in the absence and presence of arachidonate.
For cyclooxygenase assays, osteosarcoma cells are cultured in 1 mL of media in 24-well multidishes (Nunclon) until confluent (1-2×10^5 cells/well). U-937 cells are grown in spinner flasks and resuspended to a final density of 1.5×10^6 cells/mL in 24-well multidishes (Nunclon). Following washing and resuspension of osteosarcoma and U-937 cells in 1 mL of Hanks balanced salts solution (HBSS), 2 μL of a DMSO solution of test compound or DMSO vehicle is added, and samples gently mixed. All assays are performed in triplicate. Samples and then incubated for 5 or 15 minutes at 37° C., prior to the addition of arachidonic acid. Arachidonic acid (peroxide-free, Cayman Chemical) is prepared as a 10mM stock solution in ethanol and further diluted 10-fold in HBSS. An aliquot of 10 μL of this diluted solution is added to the cells to give a final arachidonic acid concentration of 10 μM. Control samples are incubated with ethanol vehicle instead of arachidonic acid. Samples are again gently mixed and incubated for a further 10 min. at 37° C. For osteosarcoma cells, reactions are then stopped by the addition of 100 μL of 1 N HCl with mixing and by the rapid removal of the solution from cell monolayers. For U-937 cells, reactions are stopped by the addition of 100 μL of 1N HCl, with mixing. Samples are then neutralized by the addition of 100 μL of 1N NaOH and PGE2 levels measured by radioimmunoassay.
In the assay, inhibition is determined by measuring the amount of prostaglandin E2 (PGE2) synthesized in the presence of arachidonic acid, cyclooxygenase-1 or cyclooxygenase-2 and a putative inhibitor. The IC50 values represent the concentration of putative inhibitor required to return PGE2 synthesis to 50% of that obtained as compared to the uninhibited control.

In test [2] the target is cyclooxygenase-1 (Homo sapiens, UniProt P23219). Kind of test: Inhibition of cyclooxygenase activity, whole cell cyclooxygenase assay (COX-1, U-937 cells, PGE2 by radioimmunoassay). The format is cell-based. Conditions: human U-937 cells; PGE2 synthesis; 10 μM arachidonic acid.
Test [3] concerns Rat paw edema. Kind of test: Rat Paw Edema Assay (carrageenan). The settings on record: po, 1 h before subplantar carrageenan (500 μg per paw); paw volume at 3 h. It counts as in vivo, Male Sprague-Dawley rats. The method, then: Male Sprague-Dawley rats (150-200 g) were fasted overnight and were given po either vehicle (1% methocel or 5% Tween 80) or a test compound. One hour later, a line was drawn using a permanent marker at the level above the ankle in one hind paw to define the area of the paw to be monitored. The paw volume (VO) was measured using a plethysmometer (Ugo-B asile, Italy) based on the principle of water displacement. The animals were then injected subplantarly with 50 μl of 1% carrageenan solution in saline (FMC Corp, Maine) into the paw using an insulin syringe with a 25-gauge needle (i.e. 500 μg carrageenan per paw). Three hours later, the paw is volume (V3) was measured and the increases in paw volume (V3 -VO) were calculated. The animals were sacrificed by CO2 aphyxiation and the absence or presence of stomach lesions scored. Data were compared with the vehicle-control values and percent inhibition calculated. […] All treatment groups were coded to eliminate observer bias.

Sequence of cyclooxygenase-1 (P23219 24-599): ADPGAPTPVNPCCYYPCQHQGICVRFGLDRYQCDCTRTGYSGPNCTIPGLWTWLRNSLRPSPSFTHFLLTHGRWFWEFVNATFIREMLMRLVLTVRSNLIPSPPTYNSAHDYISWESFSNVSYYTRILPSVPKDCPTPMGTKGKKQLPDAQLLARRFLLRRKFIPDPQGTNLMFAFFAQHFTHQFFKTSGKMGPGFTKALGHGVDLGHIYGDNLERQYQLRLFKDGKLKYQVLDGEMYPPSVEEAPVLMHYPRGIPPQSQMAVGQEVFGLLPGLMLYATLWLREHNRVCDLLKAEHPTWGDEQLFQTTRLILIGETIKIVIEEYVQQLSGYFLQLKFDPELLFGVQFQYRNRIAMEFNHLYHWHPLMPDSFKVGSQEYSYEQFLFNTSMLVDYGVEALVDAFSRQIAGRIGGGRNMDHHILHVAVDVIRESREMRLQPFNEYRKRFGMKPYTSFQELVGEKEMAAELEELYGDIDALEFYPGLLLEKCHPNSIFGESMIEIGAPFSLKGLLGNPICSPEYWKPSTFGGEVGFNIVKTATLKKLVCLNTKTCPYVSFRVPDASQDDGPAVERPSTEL

On to `Cc1c(C(C)C(=O)[O-])c2cc(Br)ccc2n1Cc1ccc(Br)cc1.[Na+]` (racemic) [sodium salt], for which the IC50 (usually the concentration at which inhibition is half-maximal) was 1.9 nM in test [1] and 10000 nM in test [2].

Consider `Cc1c([C@@H](C)C(=O)O)c2cc(Br)ccc2n1Cc1ccc(Br)cc1` [Example 3, (R)-(-)-2-(5-Bromo-1-(4-bromobenzyl)-2-methyl-1H-indol-3-yl)propionic acid, sodium salt], for which the values for the IC50 in test [1] and in test [2] were 1 nM and 32000 nM, respectively. The Rat paw edema (ED30) in test [3] was found to be 0.57 mg/kg.

On to `Cc1c([C@H](C)C(=O)O)c2cc(Br)ccc2n1Cc1ccc(Br)cc1` [Example 2, sodium salt], for which the IC50 in test [1] is 13 nM; in test [2] it was 1100 nM. This compound had a Rat paw edema (ED30) in test [3] of 0.28 mg/kg.

Turning to `Cc1c(C(C)C(=O)[O-])c2cc(Br)ccc2n1Cc1ccc(Br)cc1.[Na+]` (racemic), the Rat paw edema (ED30) in test [3] was determined as 0.26 mg/kg.

In the case of `COc1ccc2c(c1)c(C(C)C(=O)O)c(C)n2Cc1ccc(Cl)cc1` (stereo not drawn) [MK-555, α-(1-p-chlorobenzyl-2-methyl-5-methoxy-3-indolyl)propionic acid, reference compound], the IC50 in test [1] stood at 10 nM; in test [2] it was 10000 nM. In addition, the Rat paw edema (ED30) in test [3] turned out to be 3 mg/kg.
